Assay results published in the kinase profiling compilation of Christmann-Franck et al. (2016).

Key:
Test in all cases: KINOMEscan competition binding
Conditions in all cases: compound 10.0 µM
TEC (human) = TEC (human) (UniProt P42680)
PTK2B (human) = PTK2B (human) (UniProt Q14289)
IGF1R (human) = IGF1R (human) (UniProt P08069)
MYLK4 (human) = MYLK4 (human) (UniProt Q86YV6)
RIOK1 (human) = RIOK1 (human) (UniProt Q9BRS2)
CDK19 (human) = CDK19 (human) (UniProt Q9BWU1)
PRKCD (human) = PRKCD (human) (UniProt Q05655)
AAK1 (human) = AAK1 (human) (UniProt Q2M2I8)
CDK8 (human) = CDK8 (human) (UniProt P49336)
PI4KB (human) = PI4KB (human) (UniProt Q9UBF8)
PIK3CB (human) = PIK3CB (human) (UniProt P42338)
Chain of PIK3CB (human) (P42338 whole entry, looked up): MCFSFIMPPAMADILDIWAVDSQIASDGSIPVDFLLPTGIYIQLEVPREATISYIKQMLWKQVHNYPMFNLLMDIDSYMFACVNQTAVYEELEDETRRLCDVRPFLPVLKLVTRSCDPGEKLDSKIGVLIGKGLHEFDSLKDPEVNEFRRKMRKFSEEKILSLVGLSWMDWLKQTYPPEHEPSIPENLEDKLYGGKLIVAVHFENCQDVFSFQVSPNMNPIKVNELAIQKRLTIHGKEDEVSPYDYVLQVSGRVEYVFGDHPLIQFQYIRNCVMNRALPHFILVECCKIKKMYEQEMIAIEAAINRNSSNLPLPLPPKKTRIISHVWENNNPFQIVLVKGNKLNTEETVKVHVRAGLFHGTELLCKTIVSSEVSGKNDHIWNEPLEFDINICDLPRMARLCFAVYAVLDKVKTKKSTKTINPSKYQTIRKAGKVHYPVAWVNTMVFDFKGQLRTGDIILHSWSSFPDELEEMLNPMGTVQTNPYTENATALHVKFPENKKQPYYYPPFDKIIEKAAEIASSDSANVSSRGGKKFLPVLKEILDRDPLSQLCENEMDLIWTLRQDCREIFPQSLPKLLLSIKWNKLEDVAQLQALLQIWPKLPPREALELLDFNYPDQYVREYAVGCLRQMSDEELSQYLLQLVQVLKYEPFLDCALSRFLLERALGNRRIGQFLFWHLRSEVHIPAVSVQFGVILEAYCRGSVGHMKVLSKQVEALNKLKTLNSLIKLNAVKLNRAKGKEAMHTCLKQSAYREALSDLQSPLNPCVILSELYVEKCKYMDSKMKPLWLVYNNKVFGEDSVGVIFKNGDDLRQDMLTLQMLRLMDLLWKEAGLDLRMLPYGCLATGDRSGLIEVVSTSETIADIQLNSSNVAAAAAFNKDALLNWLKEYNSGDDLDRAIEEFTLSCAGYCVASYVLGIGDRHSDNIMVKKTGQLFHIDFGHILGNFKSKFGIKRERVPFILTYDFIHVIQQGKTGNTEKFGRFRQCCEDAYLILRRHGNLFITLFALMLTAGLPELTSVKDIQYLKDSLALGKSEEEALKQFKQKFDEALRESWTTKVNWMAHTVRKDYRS

MAPK3 (human) = MAPK3 (human) (UniProt P27361)
PRKG2 (human) = PRKG2 (human) (UniProt Q13237)
CDK9 (human) = CDK9 (human) (UniProt P50750)
STK36 (human) = STK36 (human) (UniProt Q9NRP7)
[1] = system: ABL1 (human), P00519 [Y253F]
TRPM6 (human) = TRPM6 (human) (UniProt Q9BX84)
CDK5 (human) = CDK5 (human) (UniProt Q00535)
IKBKE (human) = IKBKE (human) (UniProt Q14164)
DYRK2 (human) = DYRK2 (human) (UniProt Q92630)
MARK4 (human) = MARK4 (human) (UniProt Q96L34)
PRKD1 (human) = PRKD1 (human) (UniProt Q15139)
CSNK1G2 (human) = CSNK1G2 (human) (UniProt P78368)
Chain of CSNK1G2 (human) (P78368 whole entry, looked up): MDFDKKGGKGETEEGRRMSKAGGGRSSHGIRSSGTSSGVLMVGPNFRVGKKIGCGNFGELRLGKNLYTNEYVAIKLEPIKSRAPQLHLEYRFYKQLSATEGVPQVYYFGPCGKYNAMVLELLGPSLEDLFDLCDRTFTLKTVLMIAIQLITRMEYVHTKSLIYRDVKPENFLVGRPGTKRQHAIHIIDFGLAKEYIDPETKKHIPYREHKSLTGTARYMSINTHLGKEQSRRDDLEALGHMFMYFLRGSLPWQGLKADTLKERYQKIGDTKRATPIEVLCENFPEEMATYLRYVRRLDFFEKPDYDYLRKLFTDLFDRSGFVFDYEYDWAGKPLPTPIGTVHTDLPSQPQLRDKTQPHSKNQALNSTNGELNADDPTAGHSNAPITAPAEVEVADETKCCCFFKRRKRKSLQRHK

PRKD2 (human) = PRKD2 (human) (UniProt Q9BZL6)
AKT1 (human) = AKT1 (human) (UniProt P31749)
MAP3K15 (human) = MAP3K15 (human) (UniProt Q6ZN16)
HUNK (human) = HUNK (human) (UniProt P57058)
CLK2 (human) = CLK2 (human) (UniProt P49760)
CDK2 (human) = CDK2 (human) (UniProt P24941)
MAP3K12 (human) = MAP3K12 (human) (UniProt Q12852)
NEK11 (human) = NEK11 (human) (UniProt Q8NG66)
EPHB1 (human) = EPHB1 (human) (UniProt P54762)
PRKCE (human) = PRKCE (human) (UniProt Q02156)
ULK1 (human) = ULK1 (human) (UniProt O75385)
NEK9 (human) = NEK9 (human) (UniProt Q8TD19)
Chain of NEK9 (human) (Q8TD19 whole entry, looked up): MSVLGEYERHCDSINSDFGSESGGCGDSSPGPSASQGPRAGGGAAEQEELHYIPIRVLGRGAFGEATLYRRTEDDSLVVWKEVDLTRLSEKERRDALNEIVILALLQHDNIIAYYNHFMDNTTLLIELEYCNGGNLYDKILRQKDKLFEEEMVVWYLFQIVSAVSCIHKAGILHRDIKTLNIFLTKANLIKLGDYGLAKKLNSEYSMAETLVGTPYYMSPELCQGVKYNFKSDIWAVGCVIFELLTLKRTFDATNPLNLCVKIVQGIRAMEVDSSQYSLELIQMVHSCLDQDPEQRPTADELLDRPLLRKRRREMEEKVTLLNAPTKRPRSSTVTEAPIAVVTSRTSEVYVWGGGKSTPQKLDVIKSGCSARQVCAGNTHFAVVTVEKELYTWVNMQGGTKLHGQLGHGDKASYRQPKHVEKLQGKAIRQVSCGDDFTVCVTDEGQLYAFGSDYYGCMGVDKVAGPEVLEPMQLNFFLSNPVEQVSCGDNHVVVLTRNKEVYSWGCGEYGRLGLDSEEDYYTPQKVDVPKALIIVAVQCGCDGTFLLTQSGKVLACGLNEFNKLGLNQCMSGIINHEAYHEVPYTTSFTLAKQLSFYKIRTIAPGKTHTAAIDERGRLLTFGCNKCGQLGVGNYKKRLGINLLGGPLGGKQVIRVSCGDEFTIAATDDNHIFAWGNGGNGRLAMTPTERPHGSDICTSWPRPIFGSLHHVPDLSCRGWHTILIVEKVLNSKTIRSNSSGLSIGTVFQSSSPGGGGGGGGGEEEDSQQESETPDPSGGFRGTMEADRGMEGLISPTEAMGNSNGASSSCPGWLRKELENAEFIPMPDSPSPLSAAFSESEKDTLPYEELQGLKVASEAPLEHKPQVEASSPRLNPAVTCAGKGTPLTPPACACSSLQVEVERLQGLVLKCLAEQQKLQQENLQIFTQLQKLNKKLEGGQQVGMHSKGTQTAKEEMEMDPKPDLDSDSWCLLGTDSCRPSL

MST1R (human) = MST1R (human) (UniProt Q04912)
GSK3B (human) = GSK3B (human) (UniProt P49841)
RAF1 (human) = RAF1 (human) (UniProt P04049)
Chain of RAF1 (human) (P04049 whole entry, looked up): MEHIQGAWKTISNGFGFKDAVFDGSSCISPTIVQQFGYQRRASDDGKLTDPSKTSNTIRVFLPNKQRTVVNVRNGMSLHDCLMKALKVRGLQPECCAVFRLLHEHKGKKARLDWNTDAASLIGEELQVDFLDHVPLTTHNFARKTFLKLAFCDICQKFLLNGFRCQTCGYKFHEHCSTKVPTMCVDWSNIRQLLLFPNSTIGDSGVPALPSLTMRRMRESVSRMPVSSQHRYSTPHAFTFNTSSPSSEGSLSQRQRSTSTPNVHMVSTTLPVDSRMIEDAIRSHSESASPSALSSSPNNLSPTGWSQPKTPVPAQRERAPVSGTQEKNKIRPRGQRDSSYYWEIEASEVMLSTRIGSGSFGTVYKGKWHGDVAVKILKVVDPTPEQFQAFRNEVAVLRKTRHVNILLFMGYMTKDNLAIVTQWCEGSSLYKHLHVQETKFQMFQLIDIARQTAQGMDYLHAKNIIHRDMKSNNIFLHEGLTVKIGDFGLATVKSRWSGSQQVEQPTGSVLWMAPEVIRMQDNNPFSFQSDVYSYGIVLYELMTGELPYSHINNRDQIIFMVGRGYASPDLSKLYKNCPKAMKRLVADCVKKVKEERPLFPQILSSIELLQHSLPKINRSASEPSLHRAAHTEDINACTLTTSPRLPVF

CAMK2D (human) = CAMK2D (human) (UniProt Q13557)
Chain of CAMK2D (human) (Q13557 whole entry, looked up): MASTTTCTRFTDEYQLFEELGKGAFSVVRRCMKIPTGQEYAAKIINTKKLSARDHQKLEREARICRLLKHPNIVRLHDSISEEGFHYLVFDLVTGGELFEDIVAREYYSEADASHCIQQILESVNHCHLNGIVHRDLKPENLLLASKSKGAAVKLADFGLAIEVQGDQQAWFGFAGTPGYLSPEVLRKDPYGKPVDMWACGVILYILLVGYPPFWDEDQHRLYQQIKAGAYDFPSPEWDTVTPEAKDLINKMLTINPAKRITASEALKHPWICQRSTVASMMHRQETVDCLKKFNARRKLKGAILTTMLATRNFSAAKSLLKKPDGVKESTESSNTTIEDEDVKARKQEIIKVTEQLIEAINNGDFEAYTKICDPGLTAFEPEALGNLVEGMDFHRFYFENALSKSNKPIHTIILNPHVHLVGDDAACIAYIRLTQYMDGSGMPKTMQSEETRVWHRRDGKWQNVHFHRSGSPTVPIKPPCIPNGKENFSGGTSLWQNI

BMPR2 (human) = BMPR2 (human) (UniProt Q13873)

Chain of IGF1R (human) (P08069 whole entry, looked up): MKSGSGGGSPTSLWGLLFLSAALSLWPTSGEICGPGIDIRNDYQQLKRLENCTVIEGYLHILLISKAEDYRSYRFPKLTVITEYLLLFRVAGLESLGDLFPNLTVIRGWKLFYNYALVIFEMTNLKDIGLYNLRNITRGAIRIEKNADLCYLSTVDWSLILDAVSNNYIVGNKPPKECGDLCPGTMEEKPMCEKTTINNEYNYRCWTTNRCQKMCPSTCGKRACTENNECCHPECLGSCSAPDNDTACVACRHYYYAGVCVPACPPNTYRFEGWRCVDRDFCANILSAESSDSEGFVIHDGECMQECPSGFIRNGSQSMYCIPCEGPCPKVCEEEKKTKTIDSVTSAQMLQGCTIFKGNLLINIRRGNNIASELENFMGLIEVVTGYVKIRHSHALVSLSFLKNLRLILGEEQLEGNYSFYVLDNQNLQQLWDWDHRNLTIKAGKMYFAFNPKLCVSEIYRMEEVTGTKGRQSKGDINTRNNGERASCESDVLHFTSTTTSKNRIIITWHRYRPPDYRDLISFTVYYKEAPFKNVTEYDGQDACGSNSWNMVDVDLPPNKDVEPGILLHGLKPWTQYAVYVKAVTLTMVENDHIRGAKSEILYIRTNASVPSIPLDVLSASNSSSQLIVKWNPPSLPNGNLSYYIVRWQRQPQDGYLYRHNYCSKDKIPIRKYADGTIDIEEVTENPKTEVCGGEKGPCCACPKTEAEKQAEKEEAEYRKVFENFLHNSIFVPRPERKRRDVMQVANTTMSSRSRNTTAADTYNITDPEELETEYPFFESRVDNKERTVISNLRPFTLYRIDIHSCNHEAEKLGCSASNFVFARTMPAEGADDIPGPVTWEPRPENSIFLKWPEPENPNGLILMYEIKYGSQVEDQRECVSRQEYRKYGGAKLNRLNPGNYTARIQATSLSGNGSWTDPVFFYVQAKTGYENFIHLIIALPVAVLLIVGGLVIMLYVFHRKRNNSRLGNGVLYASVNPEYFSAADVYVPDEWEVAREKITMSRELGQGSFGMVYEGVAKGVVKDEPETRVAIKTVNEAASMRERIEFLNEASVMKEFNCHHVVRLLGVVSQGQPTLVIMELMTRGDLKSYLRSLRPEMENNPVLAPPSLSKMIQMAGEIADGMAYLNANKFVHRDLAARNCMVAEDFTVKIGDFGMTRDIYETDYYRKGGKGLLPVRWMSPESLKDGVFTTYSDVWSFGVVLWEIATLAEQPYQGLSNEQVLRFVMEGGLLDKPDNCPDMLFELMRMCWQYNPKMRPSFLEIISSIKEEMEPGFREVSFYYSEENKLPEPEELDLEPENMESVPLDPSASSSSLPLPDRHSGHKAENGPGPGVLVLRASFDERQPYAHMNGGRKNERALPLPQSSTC

SMILES | kinase still bound, per cent of control (TEC (human)) [%] | kinase still bound, per cent of control (PTK2B (human)) [%] | kinase still bound, per cent of control (IGF1R (human)) [%] | kinase still bound, per cent of control (MYLK4 (human)) [%] | kinase still bound, per cent of control (RIOK1 (human)) [%] | kinase still bound, per cent of control (CDK19 (human)) [%] | kinase still bound, per cent of control (PRKCD (human)) [%] | kinase still bound, per cent of control (AAK1 (human)) [%] | kinase still bound, per cent of control (CDK8 (human)) [%] | kinase still bound, per cent of control (PI4KB (human)) [%] | kinase still bound, per cent of control (PIK3CB (human)) [%] | kinase still bound, per cent of control (MAPK3 (human)) [%] | kinase still bound, per cent of control (PRKG2 (human)) [%] | kinase still bound, per cent of control (CDK9 (human)) [%] | kinase still bound, per cent of control (STK36 (human)) [%] | kinase still bound, per cent of control [1] [%] | kinase still bound, per cent of control (TRPM6 (human)) [%] | kinase still bound, per cent of control (CDK5 (human)) [%] | kinase still bound, per cent of control (IKBKE (human)) [%] | kinase still bound, per cent of control (DYRK2 (human)) [%] | also measured
CCN1CCN(C(=O)Cc2ccc(Nc3ncc(F)c(Nc4ccc(C(=O)Nc5ccccc5Cl)cc4)n3)cc2)CC1 | 42 | 33 | 46 | 11 | 0 | 76 | 60 | 7 | 46 | 100 | 83 | 100 | 62 | 73 | 2.1 | 16 | 96 | 79 | 100 | 18 | kinase still bound, per cent of control (MARK4 (human)): 17%; kinase still bound, per cent of control (PRKD1 (human)): 100%; kinase still bound, per cent of control (CSNK1G2 (human)): 58%; kinase still bound, per cent of control (PRKD2 (human)): 100%; kinase still bound, per cent of control (AKT1 (human)): 100%; kinase still bound, per cent of control (MAP3K15 (human)): 100%; kinase still bound, per cent of control (HUNK (human)): 49%; kinase still bound, per cent of control (CLK2 (human)): 4.9%; kinase still bound, per cent of control (CDK2 (human)): 80%; kinase still bound, per cent of control (MAP3K12 (human)): 71%; kinase still bound, per cent of control (NEK11 (human)): 100%; kinase still bound, per cent of control (EPHB1 (human)): 66%; kinase still bound, per cent of control (PRKCE (human)): 100%; kinase still bound, per cent of control (ULK1 (human)): 28%; kinase still bound, per cent of control (NEK9 (human)): 18%; kinase still bound, per cent of control (MST1R (human)): 100%; kinase still bound, per cent of control (GSK3B (human)): 61%; kinase still bound, per cent of control (RAF1 (human)): 81%; kinase still bound, per cent of control (CAMK2D (human)): 71%; kinase still bound, per cent of control (BMPR2 (human)): 25%
O=C(Nc1cccc(Nc2ncc(Br)c(NCCc3cnc[nH]3)n2)c1)N1CCCC1 | 47 | 8.2 | 17 | 6.8 | 0 | 100 | 12 | 3.1 | 97 | 35 | 100 | 76 | 4.8 | 66 | 18 | 0.1 | 76 | 24 | 4.6 | 3.4 | kinase still bound, per cent of control (MARK4 (human)): 0%; kinase still bound, per cent of control (PRKD1 (human)): 0.65%; kinase still bound, per cent of control (CSNK1G2 (human)): 76%; kinase still bound, per cent of control (PRKD2 (human)): 1.7%; kinase still bound, per cent of control (AKT1 (human)): 100%; kinase still bound, per cent of control (MAP3K15 (human)): 50%; kinase still bound, per cent of control (HUNK (human)): 73%; kinase still bound, per cent of control (CLK2 (human)): 2.2%; kinase still bound, per cent of control (CDK2 (human)): 43%; kinase still bound, per cent of control (MAP3K12 (human)): 21%; kinase still bound, per cent of control (NEK11 (human)): 85%; kinase still bound, per cent of control (EPHB1 (human)): 85%; kinase still bound, per cent of control (PRKCE (human)): 0%; kinase still bound, per cent of control (ULK1 (human)): 0.05%; kinase still bound, per cent of control (NEK9 (human)): 4.6%; kinase still bound, per cent of control (MST1R (human)): 70%; kinase still bound, per cent of control (GSK3B (human)): 44%; kinase still bound, per cent of control (RAF1 (human)): 100%; kinase still bound, per cent of control (CAMK2D (human)): 46%; kinase still bound, per cent of control (BMPR2 (human)): 13%
